Reference: PubChem BioAssay (NCI)
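Tested at 5 concentrations; 48 h exposure; 96-well plates; endpoints linearly interpolated, else capped at highest concentration. TGI denotes the concentration required for complete inhibition of growth.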

Tests used:
Test in all cases: DTP human tumour cell line panel, 48 h
OVCAR-4 ovarian = system: OVCAR-4 ovarian
CCRF-CEM leukemia = system: CCRF-CEM leukemia
OVCAR-5 ovarian = system: OVCAR-5 ovarian
NCI-H23 lung = system: NCI-H23 lung
RPMI-8226 leukemia = system: RPMI-8226 leukemia
K-562 leukemia = system: K-562 leukemia
SK-MEL-5 melanoma = system: SK-MEL-5 melanoma
SK-OV-3 ovarian = system: SK-OV-3 ovarian
MDA-N = system: MDA-N
UO-31 renal = system: UO-31 renal
HOP-62 NSCLC = system: HOP-62 NSCLC
HS 578T breast = system: HS 578T breast
ACHN renal = system: ACHN renal
TK-10 renal = system: TK-10 renal
786-0 renal = system: 786-0 renal
SN12C renal = system: SN12C renal
SF-539 CNS = system: SF-539 CNS
SK-MEL-28 melanoma = system: SK-MEL-28 melanoma
UACC-62 melanoma = system: UACC-62 melanoma
SNB-75 CNS = system: SNB-75 CNS

SMILES | TGI (OVCAR-4 ovarian) [µM] | TGI (CCRF-CEM leukemia) [µM] | TGI (OVCAR-5 ovarian) [µM] | TGI (NCI-H23 lung) [µM] | TGI (RPMI-8226 leukemia) [µM] | TGI (K-562 leukemia) [µM] | TGI (SK-MEL-5 melanoma) [µM] | TGI (SK-OV-3 ovarian) [µM] | TGI (MDA-N) [µM] | TGI (UO-31 renal) [µM] | TGI (HOP-62 NSCLC) [µM] | TGI (HS 578T breast) [µM] | TGI (ACHN renal) [µM] | TGI (TK-10 renal) [µM] | TGI (786-0 renal) [µM] | TGI (SN12C renal) [µM] | TGI (SF-539 CNS) [µM] | TGI (SK-MEL-28 melanoma) [µM] | TGI (UACC-62 melanoma) [µM] | TGI (SNB-75 CNS) [µM]
COc1cc([C@H]2CC(=O)C[C@@H](c3cc(OC)c(OC)c(OC)c3)C23C(=O)c2ccccc2C3=O)cc(OC)c1OC | > 100 | > 100 | > 100 | > 100 | > 100 | > 100 | > 100 | > 100 | > 100 | > 100 | > 100 | > 100 | > 100 | > 100 | > 100 | > 100 | > 100 | > 100 | > 100 | > 100
C/C=C1/CN2CCC34c5ccccc5N(C)C23C2CC1C4(C(=O)OC)C(O)O2 (stereo not given) | > 100 | > 100 | > 100 | > 100 | > 100 | > 100 | > 100 | > 100 | > 100 | > 100 | > 100 | > 100 | > 100 | > 100 | > 100 | > 100 | > 100 | > 100 | > 100 | > 100
Cc1c2cc[n+](C)cc2c(C)c2c1[nH]c1ccc(Cl)cc12 | 26.5 | 26.5 | 84.4 | 9.12 | > 95.6 | 45.5 | 5.99 | 53.3 | > 59.3 | 42.8 | 6.95 | 0.743 | 61.7 | 61.3 | 5.76 | 3.42 | 2.32 | 16.5 | 45.1 | 1.05
CCOC(=O)N1CCN(c2nc(C)n(-c3ccccc3)c(=S)c2C#N)CC1 | > 100 | > 62.6 | > 100 | > 100 | > 100 | > 100 | > 100 | > 100 | > 72.2 | > 100 | > 100 | > 100 | > 100 | > 100 | > 100 | > 100 | > 100 | > 100 | > 100 | > 79.7
NC(=NCCN1CCCCCCC1)NO | > 100 | > 100 | > 100 | > 100 | > 100 | > 100 | > 100 | > 100 | > 100 | > 100 | > 100 | > 100 | 43.4 | > 100 | > 100 | > 100 | > 100 | > 100 | > 100 | > 100
Nc1ncnc2c1ncn2C1C=CC(COS(N)(=O)=O)C1 (stereo not given) | > 100 | > 100 | > 100 | 82.1 | > 100 | > 100 | > 100 | > 100 | > 100 | > 100 | > 100 | > 100 | > 100 | > 100 | > 100 | > 100 | 7.12 | > 100 | > 100 | > 100
CC(C)(O)CO/N=C1\C(c2c(O)[nH]c3ccccc23)=Nc2ccccc21 | 21.9 | 6.54 | 9.3 | 12.7 | > 31.6 | > 100 | 2.28 | 2.05 | > 45 | 5.09 | 16.4 | > 100 | 8.01 | 8.68 | > 44.4 | > 80.1 | 10.2 | > 46.2 | 2.66 | 9.72
Cc1coc2c1C(=O)C(=O)c1c-2ccc2c1CCCC2(C)C | > 100 | > 100 | 28.5 | 2.8 | > 33.9 | 11.5 | 1.19 | > 100 | 2.8 | 14.2 | 12.1 | > 31.4 | > 100 | > 85.8 | 8.62 | > 30.1 | 7.59 | 7.52 | 3.32 | 16.3
CO/N=C(\C(=O)Nc1cncs1)c1csc(N)n1 | > 10 | > 10 | > 10 | > 10 | > 10 | > 10 | > 10 | > 10 | > 10 | > 10 | > 10 | > 10 | > 10 | > 10 | > 10 | > 10 | > 10 | > 10 | > 10 | > 10
C/C(=N/c1[nH]c(=O)cc2c1C(=O)CC2)N(C)C | > 200 | > 200 | > 200 | > 200 | > 200 | > 200 | > 200 | > 200 | > 200 | > 200 | > 200 | > 200 | > 200 | > 200 | > 200 | > 200 | > 200 | > 200 | > 200 | > 200
COc1ccc2oc(=O)c(-c3nc4ccccc4o3)cc2c1 | > 100 | > 100 | > 100 | > 100 | > 100 | > 100 | > 100 | > 100 | > 100 | > 100 | > 100 | > 100 | > 100 | > 100 | > 100 | > 100 | > 100 | > 100 | > 100 | > 100
CC(C)n1c(=O)[nH]n(-c2ccccc2)c1=O | > 100 | > 100 | > 100 | > 100 | > 100 | > 100 | > 100 | > 100 | > 100 | > 100 | > 100 | > 100 | > 100 | > 100 | > 100 | > 100 | > 100 | > 100 | > 100 | > 100
CC[C@@H]1CC[C@@H]2[C@H](CC[C@]3(C)[C@@H](O)CC[C@@H]23)[C@H]1CO | > 100 | > 100 | > 100 | > 100 | > 100 | > 100 | > 100 | > 100 | > 100 | > 100 | > 100 | > 100 | > 100 | > 100 | > 100 | > 100 | > 100 | > 100 | > 100 | > 100
CNCCCNC1(c2cc3ccccc3s2)CCCCC1 | 27 | 4.51 | 27.5 | 30.6 | 6.18 | 4.11 | 5.68 | 29.1 | 5.85 | 7.36 | 22.4 | 29.1 | 26.9 | 19.4 | 9.87 | 18.4 | 7.37 | 3.91 | 3.87 | 19.5
CC1=CC(=O)[C@@H](O)[C@]2(C)[C@H]3[C@@]4(O)OC[C@@]35[C@@H](C[C@@H]12)OC(=O)C(OC(=O)CC1=CCCC1)[C@H]5[C@@H](C)[C@H]4O (stereo not given in full) | 0.284 | 0.136 | 0.687 | 0.152 | 0.039 | > 100 | 0.0713 | 5.04 | 0.163 | 0.449 | 0.108 | 0.136 | 0.35 | 0.948 | 0.311 | 0.435 | 0.0676 | 1.25 | 0.21 | 0.155
O=C(Nc1sccc1S(=O)(=O)c1ccc(Cl)cc1)c1ccccc1 | > 100 | > 100 | > 100 | > 100 | > 100 | > 100 | > 100 | > 100 | > 100 | > 100 | > 100 | > 100 | > 100 | > 100 | > 100 | > 100 | > 100 | > 100 | > 100 | > 100
CCCNC(=O)Cn1c(C)cc2ccccc21 | > 100 | > 100 | > 100 | > 100 | > 100 | > 100 | > 100 | > 100 | > 100 | > 100 | > 100 | > 100 | > 100 | > 100 | > 100 | > 100 | > 100 | > 100 | > 100 | > 100
CC(=O)OC[C@@]1(C)[C@@H]2[C@@H]3[C@@]4(CO[C@]3(C)C(=O)[C@@]3(O)C[C@H](C)[C@H](OC(C)=O)[C@@H]3[C@H]4OC(C)=O)[C@H](OC(=O)c3ccccc3)C[C@@H]21 | > 100 | > 100 | > 100 | > 100 | > 100 | > 100 | > 100 | > 100 | > 100 | > 100 | > 100 | > 100 | > 100 | > 100 | > 100 | > 100 | > 100 | > 100 | > 100 | > 100
